Reference: publication PMC8356643 (2019)

Columns and labels:
[1] = tested on: G4TERT (DNA, G4) AGGGGAGGGGCTGGGAGGGC; experiment: UV-vis titration; conditions: 5 mM K+, 95 mM Li+; 10 mM lithium cacodylate 7.2, 95 mM LiCl, 5 mM KCl; parallel dimer
[2] = tested on: THM (DNA, G4) GGGTTGGGTTGGGTTGGG; experiment: X-ray crystallography; conditions: K+; 2.4 Å; end-stacking to the 3' G-tetrad
[3] = tested on: THM (DNA, G4) GGGTTGGGTTGGGTTGGG; experiment: ITC; conditions: 5 mM K+, 95 mM Li+; 10 mM lithium cacodylate 7.2, 95 mM LiCl, 5 mM KCl
[4] = tested on: VEGF (DNA, G4) GGGAGGGTTGGGGTGGG; experiment: UV-vis titration; conditions: 5 mM K+, 95 mM Li+; 10 mM lithium cacodylate 7.2, 95 mM LiCl, 5 mM KCl; parallel dimer
[5] = tested on: THM (DNA, G4) GGGTTGGGTTGGGTTGGG; experiment: CD melting; conditions: 5 mM K+; 2 eq NMM
[6] = tested on: THM (DNA, G4) GGGTTGGGTTGGGTTGGG; experiment: fluorescence titration; conditions: 5 mM K+, 95 mM Li+; 10 mM lithium cacodylate 7.2, 95 mM LiCl, 5 mM KCl
[7] = tested on: cMyc (DNA, G4) TGAGGGTGGGTAGGGTGGGTAA; experiment: UV-vis titration; conditions: 100 mM K+; 6 mM Na2HPO4, 2 mM NaH2PO4 7.1, 1 mM Na2EDTA, 100 mM KCl
[8] = tested on: THM (DNA, G4) GGGTTGGGTTGGGTTGGG; experiment: UV-vis titration; conditions: 5 mM K+, 95 mM Li+; 10 mM lithium cacodylate 7.2, 95 mM LiCl, 5 mM KCl
[9] = tested on: cMyc (DNA, G4) TGAGGGTGGGTAGGGTGGGTAA; experiment: fluorescence titration; conditions: 100 mM K+; 6 mM Na2HPO4, 2 mM NaH2PO4 7.1, 1 mM Na2EDTA, 100 mM KCl

## CCc1c(C)c2cc3nc(cc4nc(cc5c(CC)c(C)c(cc1[nH]2)n5C)C(C)=C4CCC(=O)O)C(CCC(=O)O)=C3C
[1]
  Ka: 1.7 ± 0.7 × 10^6 M^-1
[2]
  binding: yes
[3]
  Ka: 70 ± 20 × 10^6 M^-1
[4]
  Ka: 10. ± 2 × 10^6 M^-1
[5]
  ΔT: 23 ± 2 °C
[6]
  Ka: 50 ± 20 × 10^6 M^-1
[7]
  Ka: 19 ± 6 × 10^6 M^-1
[8]
  Ka: 30 ± 20 × 10^6 M^-1
[9]
  Ka: 7.4 ± 2 × 10^6 M^-1
